Here are results for two molecules from US20240156901A1, “GAL3BP POLYPEPTIDE COMPOSITIONS AND METHODS FOR TREATMENT OF CANCER AND DETERMINING TREATMENT RESPONSIVENESS” (UNIVERSITY OF PITTSBURGH-OF THE COMMONWEALTH SYSTEM OF …, priority 2021, published 2024).

Experiment [1] has as its system bone-marrow derived macrophages (BMDMs). The experiment can be described thus: Scratch-wound healing assay, BMDM migration. The experiment is classed as cell-based, mouse. Here is the method:
(§1) BMDMs were isolated from male and female C57BL/6 mice as previously described (Ying W et al., 2013). Briefly, femur bones were isolated from mice, and IMDM (ATCC) supplemented with 10% FBS and P/S was used to flush the bone marrow into a petri dish. After 4-6-hour incubation, the floating cells were collected and resuspended in the medium with 20 ng/mL M-CSF (PrproTech). On day 6, the fully differentiated cells were designated as an M0 state. To induce BMDM polarization toward an M1 state, 100 ng/mL LPS (Invitrogen) and 50 ng/mL IFNγ (PrproTech) were added to the M0 cells for 24 hours. To induce BMDM polarization toward an M2 state, 20 ng/mL IL-4 (PrproTech) was added to the M0 cells for 72 hours.
BMDM were polarized to the indicated status (M0, M1, or M2) and seeded in 12-well plates at 80-90% confluency. The cells were switched to the medium without FBS for 6 hours of starvation. Scratches were made using pipettor tips and fresh IMDM with indicated recombinant proteins and/or peptides were added. Images of the scratches were captured at indicated times. For the SIM-A9 scratch-wound healing assay, 12-well plates were coated with 10 μg/mL fibronectin (Sigma-Aldrich) at 37° C. overnight before seeding cells.

Experiment [2] deals with T1, binding of CHI3L1 and Gal3 (Homo sapiens, UniProt P36222).
T1 construct: endogenous in cells; host or cells: THP-1 cells
T1 sequence (P36222 22-383): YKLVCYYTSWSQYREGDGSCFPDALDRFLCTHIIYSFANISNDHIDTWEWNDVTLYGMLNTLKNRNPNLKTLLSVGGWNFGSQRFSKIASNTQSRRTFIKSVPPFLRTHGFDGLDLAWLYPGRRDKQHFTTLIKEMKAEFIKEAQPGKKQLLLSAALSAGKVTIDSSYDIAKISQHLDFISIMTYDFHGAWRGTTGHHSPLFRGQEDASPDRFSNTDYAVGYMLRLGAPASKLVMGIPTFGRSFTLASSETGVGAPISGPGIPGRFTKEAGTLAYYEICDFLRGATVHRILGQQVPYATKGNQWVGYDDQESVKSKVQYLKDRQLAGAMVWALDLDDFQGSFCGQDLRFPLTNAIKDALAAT
As to the kind of experiment: Co-IP with Gal3 antibody in THP-1 cells treated with peptides. To be noted: 20 μM for 24 hours.
Procedure: TS603 cells overexpressing CHI3L1 with V5 tag (TS603 CHI3L1_V5_OE) or THP-1 cells treated with the peptides were collected and protein-protein interaction was crosslinked with 2 mM Dithiobis (succinimidyl propionate, DSP). Membrane proteins were extracted with the Membrane Protein Extraction Kit (ThermoFisher, Cat #89842) and ˜500 μg of protein was used for Co-IP assay by the Co-Immunoprecipitation Kit (ThermoFisher, Cat #26149).
(§2) For in vivo THP-1 cell or in vitro recombinant protein Co-IP experiments, additional following antibodies were used: Mouse anti-CHI3L1 (Santa Cruz Biotechnology, Cat #SC-393590), Rat anti-Galectin-3 (Santa Cruz Biotechnology, Cat #SC-23938), anti-Galectin-3BP (Santa Cruz Biotechnology, Cat #SC-374541), Rabbit anti-CHI3L1 (Cell Signaling Technology, Cat #47066), and Rat IgG (BioXCell, Cat #BE0090).

In a further experiment the test system is Gal3/CHI3L1. The experiment can be described thus: Inhibition of Gal3/CHI3L1 by Gal3BP polypeptides. The conditions noted are these: SEQ ID NO: 4 as compared to SEQ ID NO: 5.
In a further experiment the test system is GL261-CHI3L1 glioma. As to the kind of experiment: Flow cytometry of immune cell populations in GL261-CHI3L1 glioma after peptide treatment. The experiment is classed as in vivo, mouse. As to the method:
Mice with neurological deficits or moribund appearance were sacrificed. Tumors were separated and homogenized for 15 min at 37° C. in Collagenase IV Cocktail (3.2 mg/mL collagenase type IV, 2 mg/mL soybean trypsin inhibitor, and 1.0 mg/mL deoxyribonuclease I; Worthington Biochemical). Red blood cells were lysed using ACK lysing buffer (Gibco). Cell suspensions were filtered through 70-μm strainers, centrifuged, and resuspended in cold FACS buffer (DPBS with 1% BSA) for further analysis.
About 3×10^6 cells were used for each staining panel. Cells were incubated with 1.0 μg of TruStain fcX (BioLegend) for 10 min on ice to block Fc receptors, followed by staining with the combination of indicated antibodies. After staining, cells were washed with FACS buffer three times and incubated with Fixation Buffer (BioLegend) at RT for 20 min. Cells were washed with FACS buffer, resuspended in Cyto-Last Buffer (BioLegend), and analyzed by either a BD LSRFortessa or BD FACSAria II SORP. For CyTOF, samples were prepared as described above for flow cytometry. Three pairs of samples (scrambled shRNA vs Chi3l1 KD) with similar tumor sizes were chosen and the staining procedure was followed as previously described (Mitsialis V, et al., 2020). The samples were analyzed on a Helios2 CyTOF system (Fluidigm) at the Longwood Medical Area CyTOF Core. Additional information about flow cytometry antibodies is provided in the Supplementary Material and Methods section.
Background: In flow cytometry, cells or beads pass a laser one at a time.

The test system of experiment [3] is GL261-CHI3L1 orthotopic tumors. As to the kind of experiment: Peptide treatment of GL261-CHI3L1 orthotopic tumors (MRI, survival).
Procedure: (§3) Male and female ICR SCID and C57BL/6 mice (4-6 weeks of age) were purchased from Taconic Biosciences and The Jackson Laboratory, respectively. The intracranial xenograft tumor models were established as previously described (Hu B et al., 2016). Cells in 5 μL DPBS were injected at the following numbers: TS543 vector control or CHI3L1 overexpression (OE), 1×10^4 cells; QPP7 scrambled control or CHI3L1 knockdown (KD), 1×10^5 cells; and GL261 vector control or CHI3L1 OE, 1×10^5 cells. […] For mice treated with peptides, 5 uL of 20 uM SCP or GMP was delivered into the mouse brain every 4 days with a total of seven times.
(§4) MRI and bioluminescent imaging of mice were performed at Rangos Research Center Animal Imaging Core. The tumor size of mice detected by MRI was analyzed with ITK-SNAP.
For intracranial xenograft tumor models treated with peptides, mice were implanted with a guide screw prior to intracranial injection. To install the screw, mice were anesthetized by intraperitoneal (IP) injection with ketamine/xylazine solution (1.75 mL of 100 mg/mL ketamine and 0.25 mL of 100 mg/mL xylazine in 8 mL sterile water) at a dosage of 100 μL/20 g body weight. The screw was covered by sealing the skin, and mice were allowed to recover for one week before intracranial implantation. GL261 cells overexpressing CHI3L1 (1×10^5) were injected in 5 μL of DPBS containing 20 μM of either scrambled control peptide (SCP) or Gal3BP mimetic peptide (GMP). SCP (20 μM) or GMP (20 μM) was subsequently given once every 3 days with a total of seven times by intracranial injection via the guide screw.
(§5) All mice received general inhalation anesthesia with Isoflurane for in vivo brain imaging. […] Depth of anesthesia was monitored by toe reflex (extension of limbs, spine positioning) and respiration rate. […] Respiration was monitored using a pneumatic sensor placed between the animal bed and the mouse's abdomen, rectal temperature was measured with a fiberoptic sensor, and core temperature was maintained at 36.8±0.2° C. with a feedback-controlled warm air source (SA Instruments). […]
The subject of a further experiment is QPP7 glioma. As to the kind of experiment: Peptide treatment of orthotopic syngeneic QPP7 glioma (MRI, survival). The conditions noted are these: orthotopic syngeneic mice bearing QPP7 glioma; local delivery into the brain; vs SCP.
Experiment [4] concerns bone-marrow derived macrophages (BMDMs). As to the kind of experiment: Transwell migration assay, BMDM migration. It counts as cell-based, mouse. The conditions noted are these: rCHI3L1 2.5 μg/mL, rGal3BP 5.0 μg/mL. As to the method: as §1
Polarized BMDMs were starved by removing FBS for 6 hours. Cells were collected and 2×10^5 cells in 200 μL of IMDM were added into each transwell insert (Millipore, Cat #MCMP24H48). 700 μL of IMDM containing 2% FBS and the indicated recombinant proteins was added to the bottom of the plates. After 14-hour incubation, transwell inserts were stained with HEMA 3 Stain Set (Fisher Scientific). Insert membranes were separated and mounted on glass slides with CYTOSEAL XYL (ThermoFisher) and images were taken by an inverted microscope (Leica DM 2500). For the SIM-A9 cells, the inserts were coated with 10 μg/mL fibronectin overnight in advance of seeding cells.

Experiment [5] concerns the target T2, Gal3 and CHI3L1 protein binding (Homo sapiens, UniProt P36222).
T2 construct: purchased R&D Systems 2599-CH-050 (CHI3L1); 8259-GA-050 (Galectin-3)
The experiment can be described thus: In vitro recombinant protein Co-IP competition (rGal3 + rCHI3L1 + increasing rGal3BP). The conditions noted are these: 200 ng rGal3+200 ng rCHI3L1; rGal3BP 0-800 ng/sample; with or without TD139.
Source text: as §2

Experiment [6] concerns Arg1, Ym1, Ccl2, Il10 gene expression. As to the kind of experiment: qRT-PCR of immune suppression genes in M0 BMDMs. The experiment is classed as cell-based, mouse. The conditions noted are these: rCHI3L1 2.5 μg/mL, rGal3 2.5 μg/mL, rGal3BP 5.0 μg/mL, 24 hours. Here is the method: as §1
RNA was extracted and cDNA was synthesized as described previously (Hu B et al., 2016). qRT-PCR was performed using PowerSYBR Green PCR Master Mix (Applied Biosystems) and detected with a StepOnePlus Real-Time PCR System (Applied Biosystems). Each reaction was performed in duplicate or triplicate. The relative expression of genes was normalized to human RPL39 or mouse 18S ribosomal RNA. For RNA-seq experiments, cells from intracranial xenograft tumors were isolated and incubated with antibodies for immune cell types. Macrophages were isolated by FACS and RNA was then isolated and sent to Health Sciences Sequencing Core at UPMC Children's Hospital of Pittsburgh for RNA-seq. […]

Another experiment concerns PI3K/AKT/mTOR pathway. As to the kind of experiment: Immunoblot of PI3K/AKT/mTOR signaling and transcription factors in M0 BMDMs. It counts as cell-based, mouse. The conditions noted are these: 30 minutes. As to the method: Cells were lysed on ice using RIPA buffer (Millipore) supplemented with protease and phosphatase inhibitors (Roche). The protein concentration was determined by the BCA method and 15˜30 ug of total proteins were loaded and analyzed by Western blotting with indicated antibodies. For IHC staining, brain tissues were fixed in 10% formalin overnight and embedded in paraffin. For IF staining, fresh brain tissues were immediately frozen in OCT on dry ice. IHC and IF staining were performed as we described previously (Hu B et al., 2016). Additional information about antibodies is provided in the Supplementary Material and Methods section
Immunoblotting (IB), Immunohistochemistry (IHC), and Immunofluorescence (IF). […]
(In western blotting, separated proteins are transferred to a membrane and probed.)

Where [7] appears, read: GL261-CHI3L1 tumors, GMP in contrast to SCP.
Setting [8] is: GMP-treated vs SCP-treated tumors, GL261-CHI3L1 model.

T2 sequence (P36222 22-383): as above
Procedure for QPP7 glioma: as §3, §4
For intracranial xenograft tumor models treated with peptides, mice were implanted with a guide screw prior to intracranial injection. […]
as §5

Consider TLDLSRELSEALGQI [GMP], for which, in experiment [1] (M2 BMDMs, rCHI3L1 0.6 μg/mL, different concentrations of peptide, 6 hours), the “rCHI3L1-induced BMDM migration, dose dependence” value is reported as “inhibits rCHI3L1-induced BMDM migration in a dose-dependent manner”. Further, in experiment [1] (rCHI3L1 0.6 μg/mL, peptide 30 μM, compared with SCP), the “rCHI3L1-promoted M2 BMDM migration” value is “significantly inhibited”. Moreover, the “rCHI3L1+rGal3-induced M0 BMDM migration” value in experiment [1] (rCHI3L1 2.5 μg/mL, rGal3 2.5 μg/mL, peptide 30 μM, in contrast to SCP) is on record as “attenuated”. Besides, the “binding of CHI3L1 and Gal3 (Co-IP)” value in [2] is “decreasing binding of CHI3L1 and Gal3”. Further, the “inhibition of Gal3/CHI3L1” value in the experiment on Gal3/CHI3L1 is on record as “increased inhibition”. In the experiment with GL261-CHI3L1 glioma (setting [7]), the “CD8+ cells” value was “significantly increased” and the “T cells (CD3+)” value is reported as “significantly increased”. For the same molecule, in the experiment on GL261-CHI3L1 glioma (GMP treatment), the “PD-L1 expression in CD45+, CD8+ and CD4+ cells” value is “only a decreasing trend”; the “PD-L1 expression in glioma cells” value is given as “significantly decreased”. Further, in the experiment with GL261-CHI3L1 glioma (GMP vs SCP), the “CTLA-4 level in CD4+ T cells” value is on record as “a trend of elevated levels” and the “PD-1 level in CD4+ T cells” value is “a trend of elevated levels”. Besides, in the experiment with GL261-CHI3L1 glioma (setting [8]), the “CTLA-4 expression in CD8+ T cells” value is “significantly upregulated” and the “PD-1 expression in CD8+ T cells” value was “significantly upregulated”. For the same molecule, the “PD-L1 expression in CD45+, CD8+ immune cells, and glioma cells” value in the experiment on GL261-CHI3L1 glioma (preclinical mouse models, as restated in Example 8) was “significantly decrease”. Besides, the “CD4+ cell population” value in the experiment on GL261-CHI3L1 glioma (tumors of C57BL/6 mice bearing GL261-CHI3L1) was 41.9±4.5%. The “M2-like TAMs” value in the experiment on GL261-CHI3L1 glioma (tumors of C57BL/6 mice bearing GL261-CHI3L1, mean±SEM, P=0.0536) came out at 42.8±3.8%. Besides, the “M1-like TAMs” value in the experiment on GL261-CHI3L1 glioma (tumors of C57BL/6 mice bearing GL261-CHI3L1, mean±SEM, P=0.0719) is recorded as 49.5±4.0%. Besides, in experiment [3] (C57BL/6 mice bearing GL261-CHI3L1, GMP compared to SCP), the “tumor growth (T2 MRI)” value is given as “reduced tumor growth”. Also, the median survival in experiment [3] (C57BL/6 mice bearing GL261-CHI3L1 orthotopic tumors, 20 μM peptide into brain tumor via guide screw) was 36 days. In the experiment with QPP7 glioma, the mouse survival result is on record as “increased mouse survival” and the tumor size entry is “decreased tumor size”.

B1: rGal3BP: recombinant Gal3BP protein; Galectin-3-binding protein, monomer PDB 6GFB used for docking (protein)
chain: VNDGDMRLADGGATNQGRVEIFYRGQWGTVCDNLWDLTDASVVCRALGFENATQALGRAAFGQGSGPIMLDEVQCTGTEASLADCKSLGWLKSNCRHERDAGVVCTNETRSTHTLDLSRELSEALGQIFDSQRGCDLSISVNVQGEDALGFCGHTVILTANLEAQALWKEPGSNVTMSVDAECVPMVRDLLRYFYSRRIDITLSSVKCFHKLASAYGARQLQGYCASLFAILLPQDPSFQMPLDLYAYAVATGDALLEKLCLQFLAWNFEALTQAEAWPSVPTDLLQLLLPRSDLAVPSELALLKAVDTWSWGERASHEEVEGLVEKIRFPMMLPEELFELQFNLSLYWSHEALFQKKTLQALEFHTVPFQLLARYKGLNLTEDTYKPRIYTSPTWSAFVTDSSWSARKSQLVYQSRRGPLVKYSSDYFQAPSDYRYYPYQSFQTPQHPSFLFQDKRVSWSLVYLPTIQSCWNYGFSCSSDELPVLGLTKSGGSDRTIAYENKALMLCEGLFVADVTDFEGWKAAIPSALDTNSSKSTSSFPCPAGHFNGFRTVIRPFYLTNSSGVD
As to B1, the “rCHI3L1-induced M2 BMDM migration” value was “significantly attenuated” in experiment [1] (rCHI3L1 2.5 μg/mL, rGal3BP 5.0 μg/mL, scratch-wound healing) and “significantly attenuated” in experiment [4]. In addition, the “competition with Gal3 for binding CHI3L1 (Co-IP)” value in [5] is “compete for the same binding site in CHI3L1”. For the same molecule, in experiment [6], the “expression of genes related to anti-inflammation (Arg1, Ym1, Ccl2, Il10)” value is reported as “significantly inhibited”. In addition, the “levels of p-AKT (T473 and S308), p-S6, and p-mTOR” value in the experiment with PI3K/AKT/mTOR pathway is “inhibited”.
